How the values were obtained:
[1] = Morphology studies (crystallisation attempts, XRPD); assay type: physicochemical
Text: This is indicative of an advantage over YF476 in terms of the formulation of a suitable pharmaceutical composition. YF476 is crystalline, which contributes to poor solubility and bioavailability. Amorphous YF476 can be used to increase bioavailability, but requires stabilization, which can be achieved as a solid dispersion on hydroxypropyl methyl cellulose by spray-drying.

[2] = Solubility study in Britton-Robinson's buffer (HPLC-UV); assay type: physicochemical
Experimental: The test compound (2.5 mg of solid; n=1) was weighed in a clear glass vial and Britton-Robinson's buffer (0.5 mL) was added (pH 2.01, pH 3.06, pH 4.06, pH 5.08, pH 5.99, pH 6.98, and pH 8.16). The solution was agitated at ambient temperature overnight using a vial roller system, and then filtered (0.45 µm pore size; without pre-saturation). Two aliquots (50 μL) were sampled from the filtrate and diluted with one volume of 0.1 N hydrochloric acid and methanol (1:1 v/v) before analysis by HPLC-UV. A standard was prepared in DMSO at 10 mg/mL (n=1) which was then diluted 10-fold in 0.1 N hydrochloric acid and methanol (1:1 v/v) to give a 1 mg/mL solution. The concentration of test compound in the filtrate was quantified relative to the concentration standard.
Analysis was done using a gradient HPLC-UV system with a total cycle time of 6 min. The UV detection between 220 nm and 300 nm was done using a photodiode array detector. Total response was monitored.
The values given in the table above are for crystalline YF476 and (TR2-A) and amorphous (TR1).

[3] = tested on: AGSGR cells; test: Sulphorhodamine-B (SRB) proliferation assay; assay type: cell-based, human; settings: G17 10 nM
Experimental: The potency of (TR2) and (TR3) was tested in a sulphorhodamine-B (SRB) proliferation assay in a human gastric adenocarcinoma cell line stably transfected with the human gastrin/CCK2 receptor gene (AGSGR). SRB is a fluorescent dye that binds to proteins, so cells with a high rate of protein synthesis (proliferative cells) will show high levels of fluorescence in the SRB assay. The gastrin fragment G17 has an anti-proliferative effect on AGSGR cells. So, when treated with G17, the cells show lower levels of fluorescence in the SRB assay. (TR2) and (TR3) were compared with the positive controls YF476 and YM022. […] None of the compounds tested affected AGSGR cell proliferation in the absence of G17.

[4] = Pharmacokinetics in healthy subjects; settings: human, in vivo, po
Experimental: In an initial study, healthy volunteers took a single oral dose of 100 mg (TR2) as an active pharmaceutical ingredient (API) in a capsule. Plasma concentrations were measured.
In further clinical studies, healthy volunteers (n=8) took single oral doses of 5, 15, 50 and 100 mg (TR2) as an active pharmaceutical ingredient (API) in a capsule. Plasma concentrations were measured.
Healthy volunteers (n=8) took single oral doses of 5, 15, 25 and 50 mg (TR2-A) as API in a capsule (TR2-A (crystalline) in hard gelatin capsules with no excipient, no processing of the API). Plasma concentrations of (TR2) and (TR2-A) were measured. The area under the curve of plasma concentrations of (TR2) after a single oral dose of 50 mg of (TR2-A) API (AUC0-24 h=212.5) was about the same as that observed for a similar formulation of a single oral dose of (TR2) 100 mg (AUC0-24 h=241.5). […] Moreover, the plasma concentrations of (TR2-A) were low (AUC0-24 h<10), showing that (TR2-A) is acting as a prodrug for (TR2).

[5] = tested on: panel of 80 receptors; test: Receptor binding screen, radiolabelled ligands; settings: scintillation counting; other than CCK2 and CCK1
Experimental: The potential of (TR2) and (TR3) to bind to other cellular and nuclear receptors was tested in a panel of 80 receptors. The assay used radiolabelled receptor ligands (agonist or antagonist, depending on the receptor), and the ability of the test compounds to inhibit ligand binding was measured by scintillation counting.

[6] = target: T1, CCK2 (human) (Homo sapiens, UniProt P32239); test: CCK2 receptor functional assay (antagonist effect, cAMP, HTRF); assay type: cell-based
T1 construct: expressed in transfected cells; host or cells: CHO cells
T1 sequence (P32239 1-447): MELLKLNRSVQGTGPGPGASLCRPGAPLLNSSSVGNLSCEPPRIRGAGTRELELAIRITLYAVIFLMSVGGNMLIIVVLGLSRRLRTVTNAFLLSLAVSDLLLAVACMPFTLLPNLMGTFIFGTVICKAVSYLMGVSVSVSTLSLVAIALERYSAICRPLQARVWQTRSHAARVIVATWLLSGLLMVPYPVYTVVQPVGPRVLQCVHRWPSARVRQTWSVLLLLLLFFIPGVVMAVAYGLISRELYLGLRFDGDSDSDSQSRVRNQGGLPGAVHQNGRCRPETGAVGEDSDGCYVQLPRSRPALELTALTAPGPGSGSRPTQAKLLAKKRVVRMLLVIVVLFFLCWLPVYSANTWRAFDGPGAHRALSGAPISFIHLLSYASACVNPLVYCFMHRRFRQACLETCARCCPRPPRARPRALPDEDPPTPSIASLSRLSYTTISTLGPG
Text: (§1) (TR2) and (TR3) were compared with YF476 and YM022 in CCK1 and CCK2 receptor functional assays with the following assay criteria.
Furthermore, the selectivity of (TR2) for the CCK2 receptor over the CCK1 receptor was 30% higher than the selectivity of YF476. The potency of the antagonists is expressed as IC50, the concentration of antagonist that causes a half-maximum inhibition of the control agonist response. The affinity of the antagonist for the receptor is expressed as KB, the concentration of antagonist, which would occupy 50% of the receptors at equilibrium.

[7] = target: T2, CCK1 (human) (Homo sapiens, UniProt P32238); test: CCK1 receptor functional assay (antagonist effect, cAMP, HTRF); assay type: cell-based
T2 construct: expressed in transfected cells; host or cells: CHO cells
T2 sequence (P32238 1-428): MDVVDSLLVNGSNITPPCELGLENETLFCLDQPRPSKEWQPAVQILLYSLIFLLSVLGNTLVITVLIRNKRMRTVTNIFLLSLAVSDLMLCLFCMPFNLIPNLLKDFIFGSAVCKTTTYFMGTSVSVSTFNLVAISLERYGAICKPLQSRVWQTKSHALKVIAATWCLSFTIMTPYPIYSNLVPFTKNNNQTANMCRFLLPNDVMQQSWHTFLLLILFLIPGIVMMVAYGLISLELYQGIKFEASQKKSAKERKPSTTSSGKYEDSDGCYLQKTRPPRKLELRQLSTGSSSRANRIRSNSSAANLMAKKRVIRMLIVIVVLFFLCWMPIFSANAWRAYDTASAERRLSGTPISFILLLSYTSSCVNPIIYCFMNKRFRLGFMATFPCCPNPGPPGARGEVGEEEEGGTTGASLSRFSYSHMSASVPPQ
Text: as §1
The potency of the antagonists is expressed as IC50, the concentration of antagonist that causes a half-maximum inhibition of the control agonist response. The affinity of the antagonist for the receptor is expressed as KB, the concentration of antagonist, which would occupy 50% of the receptors at equilibrium.

[8] = tested on: increase in H+ concentration of gastric aspirate induced by pentagastrin; test: Pharmacodynamic effect in healthy subjects (pentagastrin infusion); assay type: in vivo, human
Experimental: Pentagastrin induces gastric acid secretion, and thereby increases H^+ concentration.
In further clinical studies, in healthy volunteers, single oral doses of 5, 15, 50 and 100 mg of (TR2) or 5, 15, 25 and 50 mg (TR2-A) were administered in conjunction with pentagastrin infusion (i.v. dose 0.6 μg/kg/h for 2 h).
YF476 with pentagastrin infusion.

| Compound | preferred solid state [1] | inhibition of the anti-proliferative effects of G17 ([3]; compound 100 nM) | inhibition of ligand binding in panel of 80 receptors [5] | CCK2 receptor antagonism (in words) [6] | CCK1 receptor antagonism (in words) [7] | further results |
| --- | --- | --- | --- | --- | --- | --- |
| CNc1cccc(NC(=O)NC2N=C(c3ccccn3)c3ccccc3N(CC(=O)C(C)(C)CO)C2=O)c1 (racemic) [TR1] | prefer an amorphous state over a crystalline state | – | – | – | – | aqueous solubility compared (in words) [2]: more soluble in aqueous solution than YF476 |
| CNc1cccc(NC(=O)N[C@@H]2N=C(c3ccccn3)c3ccccc3N(CC(=O)C(C)(C)CO)C2=O)c1 [TR2, (R)-1-[1-(4-Hydroxy-3,3-dimethyl-2-oxo-butyl)-2-oxo-5-pyridin-2-yl-2,3-dihydro-1H-benzo[e][1,4]diazepin-3-yl]-3-(3-methylamino-phenyl)-urea] | prefer an amorphous state over a crystalline state | completely inhibited | No significant receptor binding | potent CCK2 receptor antagonists | less potent CCK1 receptor antagonists | solid state by XRPD analysis [1]: amorphous state; AUC relative to YF476 100 mg [4]: about twice; selectivity for the CCK2 receptor over the CCK1 receptor higher than the selectivity of YF476 [6]: 30%; less potent than YF476 and YM022 in the CCK2 assay ([6]; IC50 compared): about 5 fold; affinity for the CCK2 receptor lower than that of YF476 ([6]; KB compared): about 5 fold; affinity for the CCK2 receptor relative to YM022 ([6]; KB compared): twice |
| CNc1cccc(NC(=O)N[C@@H]2N=C(c3ccccn3)c3ccccc3N(CC(=O)C(C)(C)COC(C)=O)C2=O)c1 [TR2-A, (R)-1-[1-(4-Acetoxy-3,3-dimethyl-2-oxo-butyl)-2-oxo-5-pyridin-2-yl-2,3-dihydro-1H-benzo[e][1,4]diazepin-3-yl]-3-(3-methylamino-phenyl)-urea] | – | – | – | – | – | potency as a CCK2 receptor antagonist in healthy subjects (in words) [8]: greater than that of both (TR2) and YF476 |
| CNc1cccc(NC(=O)N[C@H]2N=C(c3ccccn3)c3ccccc3N(CC(=O)C(C)(C)CO)C2=O)c1 [TR3] | prefer an amorphous state over a crystalline state | – | No significant receptor binding | potent CCK2 receptor antagonists | less potent CCK1 receptor antagonists | inhibition of the anti-proliferative effects of G17 ([3]; compound 500 nM): had the same effect |
| CNc1cccc(NC(=O)N[C@@H]2N=C(c3ccccn3)c3ccccc3N(CC(=O)C(C)(C)C)C2=O)c1 [YF476, reference compound] | – | completely inhibited | – | – | – | – |
| Cc1cccc(NC(=O)N[C@@H]2N=C(c3ccccc3)c3ccccc3N(CC(=O)c3ccccc3C)C2=O)c1 [YM022, reference compound] | – | completely inhibited | – | – | – | – |

From US11447454B2, “Synthesis of benzodiazepine derivatives” (Trio Medicines Limited, priority 2015, dated 2022)
